Experimental data from ChEMBL document CHEMBL1681651, “A broad spectrum anticancer nucleoside with selective toxicity against human colon cells in vitro” (2011).

Assays:
Type in all cases: functional
HOP-62 = test: Growth inhibition of human HOP62 cells assessed as cell growth at 1 mM after 48 hrs by SRB assay; conditions: HOP-62, 48 h, read-out: Activity
HCT-116 = test: Growth inhibition of human HCT116 cells assessed as cell growth at 10 uM after 48 hrs by SRB assay; conditions: HCT-116, 48 h, read-out: Activity
RXF 393 = test: Growth inhibition of human RXF393 cells assessed as cell growth at 10 uM after 48 hrs by SRB assay; conditions: RXF 393, 48 h, read-out: Activity
HCT-15 = test: Growth inhibition of human HCT15 cells assessed as cell growth at 1 uM after 48 hrs by SRB assay; conditions: HCT-15, 48 h, read-out: Activity
Malme-3M [1] = test: Growth inhibition of human MALME-3M cells assessed as cell growth at 1 uM after 48 hrs by SRB assay; conditions: read-out: Activity
OVCAR-3 [2] = test: Growth inhibition of human OVCAR3 cells assessed as cell growth at 10 uM after 48 hrs by SRB assay; conditions: OVCAR-3, 48 h, read-out: Activity
SK-MEL-2 [3] = test: Growth inhibition of human SK-MEL-2 cells assessed as cell growth at 100 uM after 48 hrs by SRB assay; conditions: SK-MEL-2, 48 h, read-out: Activity
HCC 2998 = test: Growth inhibition of human HCC2998 cells after 48 hrs by […] growth inhibition assay; conditions: HCC 2998, 48 h
OVCAR-3 [4] = test: Growth inhibition of human OVCAR3 cells assessed as cell growth at 1 mM after 48 hrs by SRB assay; conditions: OVCAR-3, 48 h, read-out: Activity
UACC-257 = test: Growth inhibition of human UACC257 cells after 48 hrs by […] growth inhibition assay; conditions: UACC-257, 48 h
A498 = test: Growth inhibition of human A498 cells assessed as cell growth at 1 uM after 48 hrs by SRB assay; conditions: A498, 48 h, read-out: Activity
CAKI-1 [5] = test: Growth inhibition of human Caki1 cells assessed as cell growth at 1 mM after 48 hrs by SRB assay; conditions: CAKI-1, 48 h, read-out: Activity
A549 = test: Growth inhibition of human A549 cells assessed as cell growth at 100 uM after 48 hrs by SRB assay; conditions: A549, 48 h, read-out: Activity
Malme-3M [6] = test: Growth inhibition of human MALME-3M cells after 48 hrs by […] growth inhibition assay
NCI-H322M = test: Growth inhibition of human NCI-H322M cells assessed as cell growth at 1 uM after 48 hrs by SRB assay; conditions: read-out: Activity
SK-MEL-2 [7] = test: Growth inhibition of human SK-MEL-2 cells assessed as cell growth at 1 mM after 48 hrs by SRB assay; conditions: SK-MEL-2, 48 h, read-out: Activity
MDA-MB-231 [8] = test: Growth inhibition of human MDA-MB-231 cells assessed as cell growth at 100 uM after 48 hrs by SRB assay; conditions: MDA-MB-231, 48 h, read-out: Activity
SF-268 [9] = test: Growth inhibition of human SF268 cells assessed as cell growth at 0.1 uM after 48 hrs by SRB assay; conditions: SF-268, 48 h, read-out: Activity
EKVX = test: Growth inhibition of human EKVX cells assessed as cell growth at 1 mM after 48 hrs by SRB assay; conditions: read-out: Activity
MDA-MB-231 [10] = test: Growth inhibition of human MDA-MB-231 cells after 48 hrs by […] growth inhibition assay; conditions: MDA-MB-231, 48 h
OVCAR-5 = test: Growth inhibition of human OVCAR5 cells assessed as cell growth at 100 uM after 48 hrs by SRB assay; conditions: OVCAR-5, 48 h, read-out: Activity
NCI-H23 = test: Growth inhibition of human NCI-H23 cells assessed as cell growth at 0.1 uM after 48 hrs by SRB assay; conditions: NCI-H23, 48 h, read-out: Activity
NCI-H460 = test: Growth inhibition of human NCI-H460 cells assessed as cell growth at 100 uM after 48 hrs by SRB assay; conditions: NCI-H460, 48 h, read-out: Activity
SF-268 [11] = test: Growth inhibition of human SF268 cells assessed as cell growth at 1 uM after 48 hrs by SRB assay; conditions: SF-268, 48 h, read-out: Activity
CAKI-1 [12] = test: Growth inhibition of human Caki1 cells assessed as cell growth at 10 uM after 48 hrs by SRB assay; conditions: CAKI-1, 48 h, read-out: Activity
UACC-62 = test: Growth inhibition of human UACC62 cells after 48 hrs by […] growth inhibition assay; conditions: UACC-62, 48 h
SF-539 [13] = test: Growth inhibition of human SF539 cells assessed as cell growth at 1 uM after 48 hrs by SRB assay; conditions: SF-539, 48 h, read-out: Activity
KM12 = test: Growth inhibition of human KM12 cells after 48 hrs by […] growth inhibition assay; conditions: KM12, 48 h
SK-OV-3 = test: Growth inhibition of human SKOV3 cells assessed as cell growth at 0.1 uM after 48 hrs by SRB assay; conditions: SK-OV-3, 48 h, read-out: Activity
LOX IMVI = test: Growth inhibition of human LOXIMVI cells after 48 hrs by […] growth inhibition assay
SF-539 [14] = test: Growth inhibition of human SF539 cells assessed as cell growth at 10 uM after 48 hrs by SRB assay; conditions: SF-539, 48 h, read-out: Activity
CCRF-CEM = test: Growth inhibition of human CCRF-CEM cells assessed as cell growth at 1 mM after 48 hrs by SRB assay; conditions: read-out: Activity
MDA-MB-231 [15] = test: Growth inhibition of human MDA-MB-231 cells assessed as cell growth at 10 uM after 48 hrs by SRB assay; conditions: MDA-MB-231, 48 h, read-out: Activity
[16] = read-out: LC50 (the source's name)
[17] = read-out: pLC50 (the source's name) (converted)

SMILES: CNC(=O)NC[C@H]1O[C@@H](n2cnc3c(NC(=O)Nc4ccccc4)ncnc32)[C@H](O[Si](C)(C)C(C)(C)C)[C@@H]1CC(=O)N(C)OC
- growth at 1000 µM (HOP-62): 28%
- growth at 10 µM (HCT-116): 89%
- growth at 10 µM (RXF 393): 98%
- growth at 1 µM (HCT-15): 94%
- growth at 1 µM (Malme-3M [1]): 88%
- growth at 10 µM (OVCAR-3 [2]): 100%
- growth at 100 µM (SK-MEL-2 [3]): 62%
- GI50 (HCC 2998; read-out: GI50): 30.6 µM
- CC50 (HCC 2998; [16]): > 100 µM
- TGI (HCC 2998; read-out: TGI): > 100 µM
- GI50 (HCC 2998; read-out: pGI50 (converted)): 30.9 µM
- CC50 (HCC 2998; [17]): > 100 µM
- TGI (HCC 2998; read-out: pTGI (converted)): > 100 µM
- growth at 1000 µM (OVCAR-3 [4]): 6%
- GI50 (UACC-257; read-out: GI50): 22.6 µM
- CC50 (UACC-257; [16]): > 100 µM
- TGI (UACC-257; read-out: TGI): > 100 µM
- GI50 (UACC-257; read-out: pGI50 (converted)): 22.4 µM
- CC50 (UACC-257; [17]): > 100 µM
- TGI (UACC-257; read-out: pTGI (converted)): > 100 µM
- growth at 1 µM (A498): 96%
- growth at 1000 µM (CAKI-1 [5]): 47%
- growth at 100 µM (A549): 49%
- GI50 (Malme-3M [6]; read-out: GI50): 11.4 µM
- LC50 (concentration killing 50% of cells) (Malme-3M [6]; read-out: LC50): > 100 µM
- TGI (Malme-3M [6]; read-out: TGI): > 100 µM
- GI50 (Malme-3M [6]; read-out: pGI50 (converted)): 11.5 µM
- LC50 (concentration killing 50% of cells) (Malme-3M [6]; read-out: pLC50 (converted)): > 100 µM
- TGI (Malme-3M [6]; read-out: pTGI (converted)): > 100 µM
- growth at 1 µM (NCI-H322M): 98%
- growth at 1000 µM (SK-MEL-2 [7]): -5%
- growth at 100 µM (MDA-MB-231 [8]): 55%
- growth at 0.1 µM (SF-268 [9]): 98%
- growth at 1000 µM (EKVX): 36%
- GI50 (MDA-MB-231 [10]; read-out: GI50): 12.3 µM
- CC50 (MDA-MB-231 [10]; [16]): > 100 µM
- TGI (MDA-MB-231 [10]; read-out: TGI): > 100 µM
- GI50 (MDA-MB-231 [10]; read-out: pGI50 (converted)): 12.3 µM
- CC50 (MDA-MB-231 [10]; [17]): > 100 µM
- TGI (MDA-MB-231 [10]; read-out: pTGI (converted)): > 100 µM
- growth at 100 µM (OVCAR-5): 71%
- growth at 0.1 µM (NCI-H23): 106%
- growth at 100 µM (NCI-H460): 44%
- growth at 1 µM (SF-268 [11]): 105%
- growth at 10 µM (CAKI-1 [12]): 76%
- GI50 (UACC-62; read-out: GI50): 41.9 µM
- CC50 (UACC-62; [16]): > 100 µM
- TGI (UACC-62; read-out: TGI): > 100 µM
- GI50 (UACC-62; read-out: pGI50 (converted)): 41.7 µM
- CC50 (UACC-62; [17]): > 100 µM
- TGI (UACC-62; read-out: pTGI (converted)): > 100 µM
- growth at 1 µM (SF-539 [13]): 94%
- GI50 (KM12; read-out: GI50): 23.9 µM
- CC50 (KM12; [16]): > 100 µM
- TGI (KM12; read-out: TGI): > 100 µM
- GI50 (KM12; read-out: pGI50 (converted)): 24 µM
- CC50 (KM12; [17]): > 100 µM
- TGI (KM12; read-out: pTGI (converted)): > 100 µM
- growth at 0.1 µM (SK-OV-3): 96%
- GI50 (LOX IMVI; read-out: GI50): 7.3 µM
- CC50 (LOX IMVI; [16]): > 100 µM
- TGI (LOX IMVI; read-out: TGI): > 100 µM
- GI50 (LOX IMVI; read-out: pGI50 (converted)): 7.24 µM
- CC50 (LOX IMVI; [17]): > 100 µM
- TGI (LOX IMVI; read-out: pTGI (converted)): > 100 µM
- growth at 10 µM (SF-539 [14]): 89%
- growth at 1000 µM (CCRF-CEM): 23%
- growth at 10 µM (MDA-MB-231 [15]): 94%
